We go through eight compounds from US6677335B1, “Pharmaceutically active compounds” (Pfizer Inc, priority 1999, dated 2004).

One assay has as its target T1, cGMP PDE5 (Homo sapiens, UniProt O76074).
T1 construct: The IC50 measurements for cGMP PDE5 were based upon data generated on human corpus cavernosum tissue; from tissue; host or cells: human corpus cavernosum
As to the kind of experiment: In vitro PDE inhibitory activity against cGMP PDE5 (IC50). It is filed as biochemical. The conditions noted are these: cGMP PDE5 from human corpus cavernosum tissue. The text has this:
(§1) The IC50 measurements for cGMP PDE5 were based upon data generated on human corpus cavernosum tissue and the IC50 measurements for rod cGMP PDE6 were based upon data generated on bovine retina tissue and wherein the selectivity ratio for cGMP PDE5 to cGMP PDE6 quoted is based upon IC50 PDE5/IC50 PDE6.

Another assay has as its target T2, rod cGMP PDE6 (Bos taurus, UniProt P11541+P23439).
T2 construct: the IC50 measurements for rod cGMP PDE6 were based upon data generated on bovine retina tissue; from tissue; host or cells: bovine retina
T2 sequence (P11541 2-856 limits assumed): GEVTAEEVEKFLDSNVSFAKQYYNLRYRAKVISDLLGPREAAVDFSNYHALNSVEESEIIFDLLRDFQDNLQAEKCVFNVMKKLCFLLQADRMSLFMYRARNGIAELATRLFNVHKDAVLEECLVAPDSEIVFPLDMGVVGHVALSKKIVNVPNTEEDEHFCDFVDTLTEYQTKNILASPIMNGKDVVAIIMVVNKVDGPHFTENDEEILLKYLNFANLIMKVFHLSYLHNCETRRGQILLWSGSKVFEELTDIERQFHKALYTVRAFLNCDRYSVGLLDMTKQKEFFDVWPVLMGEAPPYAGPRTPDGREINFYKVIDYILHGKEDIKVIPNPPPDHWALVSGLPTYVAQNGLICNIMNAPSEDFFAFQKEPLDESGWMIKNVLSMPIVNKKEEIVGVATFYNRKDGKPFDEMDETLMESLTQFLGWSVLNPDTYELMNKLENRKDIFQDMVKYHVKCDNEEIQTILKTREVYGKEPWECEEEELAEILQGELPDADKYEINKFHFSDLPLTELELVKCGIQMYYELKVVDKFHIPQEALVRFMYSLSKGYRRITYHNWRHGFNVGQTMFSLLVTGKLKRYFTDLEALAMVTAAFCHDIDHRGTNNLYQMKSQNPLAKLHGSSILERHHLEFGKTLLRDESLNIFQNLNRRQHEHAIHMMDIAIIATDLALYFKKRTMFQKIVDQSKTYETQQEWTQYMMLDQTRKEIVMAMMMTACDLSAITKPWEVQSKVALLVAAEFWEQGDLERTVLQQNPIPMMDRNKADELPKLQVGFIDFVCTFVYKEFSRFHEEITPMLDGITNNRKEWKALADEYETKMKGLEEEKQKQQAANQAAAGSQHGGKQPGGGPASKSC
T2 sequence (P23439 2-850 limits assumed): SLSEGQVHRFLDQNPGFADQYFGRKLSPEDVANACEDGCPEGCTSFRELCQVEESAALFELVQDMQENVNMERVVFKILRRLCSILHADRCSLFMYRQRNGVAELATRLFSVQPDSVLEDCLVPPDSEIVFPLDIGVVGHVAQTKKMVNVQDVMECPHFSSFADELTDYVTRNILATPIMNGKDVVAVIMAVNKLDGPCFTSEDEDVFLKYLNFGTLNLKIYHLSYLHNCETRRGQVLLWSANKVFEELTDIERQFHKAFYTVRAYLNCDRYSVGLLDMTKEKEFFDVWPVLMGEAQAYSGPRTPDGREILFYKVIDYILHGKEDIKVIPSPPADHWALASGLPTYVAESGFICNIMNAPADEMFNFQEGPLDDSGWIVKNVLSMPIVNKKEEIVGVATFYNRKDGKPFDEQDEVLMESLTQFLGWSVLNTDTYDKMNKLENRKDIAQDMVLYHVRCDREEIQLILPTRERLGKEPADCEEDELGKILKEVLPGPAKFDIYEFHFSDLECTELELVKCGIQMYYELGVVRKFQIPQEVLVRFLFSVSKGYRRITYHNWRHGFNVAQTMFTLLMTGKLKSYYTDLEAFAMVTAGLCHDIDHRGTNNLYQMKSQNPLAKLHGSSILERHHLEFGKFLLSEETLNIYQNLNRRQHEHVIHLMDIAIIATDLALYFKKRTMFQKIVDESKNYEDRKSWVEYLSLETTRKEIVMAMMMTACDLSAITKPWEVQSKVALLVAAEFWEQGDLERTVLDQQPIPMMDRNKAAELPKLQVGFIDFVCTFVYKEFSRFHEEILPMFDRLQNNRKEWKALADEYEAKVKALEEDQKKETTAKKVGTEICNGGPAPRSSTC
Nature of the assay: In vitro PDE inhibitory activity against rod cGMP PDE6 (IC50), used for the PDE5 versus PDE6 selectivity. The conditions noted are these: ratio of IC50 for cGMP PDE5 (human corpus cavernosum) and rod cGMP PDE6 (bovine retina). It is filed as biochemical.
From the text: as §1

The term IC50 denotes the midpoint of a concentration-inhibition curve. The low end stands for greater potency in that assay, the high end for weaker potency in that assay. At cGMP PDE5, `CCOc1ncc(S(=O)(=O)N2CCN(CC)CC2)cc1-c1nc2c(CC)n(CC(C)C)nc2c(=O)[nH]1` [Example 5] gave a 50% inhibitory concentration (IC50) of 1 nM.

On cGMP PDE5, `CCOc1ncc(S(=O)(=O)N2CCN(CC)CC2)cc1-c1nc2c(CC)n(CCOC)nc2c(=O)[nH]1` [Example 8, 1-{6-ethoxy-5-[3-ethyl-6,7-dihydro-2-(2-methoxyethyl)-7-oxo-2H-pyrazolo[4,3-d]pyrimidin-5-yl]-3-pyridylsulfonyl}-4-ethylpiperazine] registered an IC50 of 1.68 nM. Besides, the “Selectivity (PDE 5/6)” value on rod cGMP PDE6 was 223.8. For the compound `CCCCOc1ncc(S(=O)(=O)N2CCN(CC)CC2)cc1-c1nc2c(CC)n(CCN(C)C)nc2c(=O)[nH]1` [Example 17, 5-[2-n-Butoxy-5-(4-ethylpiperazin-1-ylsulphonyl)pryridin-3-yl]-2-dimethylaminoethyl-3-ethyl-2,6-dihydro-7H-pyrazolo[4,3-d]pyrimidin-7-one], half-maximal inhibition at cGMP PDE5 (IC50) required 0.9 nM. In addition, the “Selectivity (PDE 5/6)” value at rod cGMP PDE6 is on record as 254.1. The like results for `CCOc1ncc(S(=O)(=O)N2CCN(CC)CC2)cc1-c1nc2c(CC)n(C3CN(C(C)=O)C3)nc2c(=O)[nH]1` [Example 22, 2-(1-Acetylazetidin-3-yl)-5-[2-ethoxy-5-(4-ethylpiperazin-1-ylsulphonyl)pyridin-3-yl]-3-ethyl-2,6-dihydro-7H-pyrazolo[4,3-d]pyrimidin-7-one] were, in that order, 6.4 nM and 325.3. In turn, `CCCOc1ncc(S(=O)(=O)N2CCN(CC)CC2)cc1-c1nc2c(CC)n(CCN(C)C(C)=O)nc2c(=O)[nH]1` [Example 24] registered a concentration for half-maximal inhibition (IC50) against cGMP PDE5 of 1.52 nM. The “Selectivity (PDE 5/6)” value on rod cGMP PDE6 was 134.9. The like results for `CCCc1c2nc(-c3cc(S(=O)(=O)N4CCN(CC)CC4)cnc3OCC(C)C)[nH]c(=O)c2nn1CCOC` [Example 27, 5-[2-isoButoxy-5-(4-ethylpiperazin-1-ylsulphonyl)pyridin-3-yl]-2-(2-methoxyethyl)-3-n-propyl-2,6-dihydro-7H-prazolo[4,3-d]pyrimidin-7-one] were, in that order, 0.85 nM and 161. The compound `CCc1c2nc(-c3cc(S(=O)(=O)N4CCN(C)CC4)cnc3OCCOC)[nH]c(=O)c2nn1CC1CCC1` [Example 53, 2-Cyclobutylmethyl-3-ethyl-5-[2-(2-methoxyethoxy)-5-(4-methylpiperazin-1-ylsulphonyl)pyridin-3-yl]-2,6-dihydro-7H-pyrazolo[4,3-d]pyrimidin-7-one] showed a half-maximal inhibitory concentration (IC50) against cGMP PDE5 of 1.09 nM. That is a single-digit nanomolar value.

As to `CCCCOc1ncc(S(=O)(=O)N2CCN(CC)CC2)cc1-c1nc2c(CC)n(CC(=O)N(C)C)nc2c(=O)[nH]1` [Example 60, 5-[2-n-Butoxy-5-(4-ethylpiperazin-1-ylsulphonyl)pyridin-3-yl]-2-[2-(dimethylamino)-2-oxoethyl]-3-ethyl-2,6-dihydro-7H-pyrazolo[4,3-d]pyrimidin-7-one], half-maximal inhibition on cGMP PDE5 (IC50) was put at 0.45 nM. Also, the “Selectivity (PDE 5/6)” value on rod cGMP PDE6 is 343.7.
